{
  "source": "patent US20090209489A1",
  "about": "“Compositions for the treatment of diabetis, system PH disorders, high blood pressure, and a cancer marker system” (priority 2008, published 2009)",
  "origin": "cited, not measured here",
  "tested_on": "Group 5 viruses",
  "conditions": "therapeutic doses",
  "data": [
    {"smiles": "CC(=O)N[C@H]1[C@H]([C@H](O)[C@H](O)CO)OC(O)(C(=O)O)C[C@@H]1O", "note": "(stereo partly shown) [N-Acetyl-Neuraminic Acid]", "values": [
      {"measurement": "effectiveness at killing Group 5 viruses relative to any other known medication", "result": "more than 1000 times"}
    ]}
  ]
}
